The values below come from patent US20200345805A1, “COMPOSITIONS AND METHODS USEABLE FOR TREATMENT OF DRY EYE” (priority 2019, published 2020).

The test system of this test is Integrin αMβ2. As to the kind of experiment: Expression of integrin αMβ2 in ischemic retinopathy of prematurity (ROP) mice after Risuteganib treatment. In kind it is in vivo. The settings on record: FIG. 1. The source says:
FIG. 1 is a graphic showing expression of integrin αMβ2 in ischemic retinopathy of prematurity (ROP) mice after Risuteganib treatment. Risuteganib is a small peptide that acts as an integrin inhibitor. Risuteganib targets multiple integrin subunits, including Integrin αMβ2 which is sometimes referred to as the “compliment 3 receptor” and is actively involved in inflammatory pathways and, in particular, the compliment 3 pathway. […] By causing such inhibition of Integrin αMβ2 Risuteganib may interfere with leucocyte adhesion and trans-endothelial migration, thereby resulting in decreased inflammation and improvement in the symptoms of Dry Eye.

Structures are written as SMILES. Non-standard residues stand in square brackets, D forms with d. Residues, ends and D or L forms follow the SMILES beside them. Cya = N[C@@H](CS(=O)(=O)O)C(=O)O

For `C[C@@H](O)[C@H](NC(=O)[C@H](CS(=O)(=O)O)NC(=O)CNC(=O)[C@H](CCCNC(=N)N)NC(=O)CN)C(=O)N1CCC[C@H]1C(=O)O` [Risuteganib, Glycyl-L-arginylglycyl-3-sulfo-L-alanyl-L-threonyl-L-proline] (H-GRG[Cya]TP-OH), the “expression of Integrin αMβ2” value is “decreases expression”.
